Paper PMC12814364 (Journal of the American Chemical Society, 2025)
Entries after “also recorded” stand apart in the source; their conditions may differ.

Target: HBHA110–199 (Mycobacterium tuberculosis, UniProt P9WIP9)
Test: ITC binding of HS hexadecasaccharides with HBHA110–199
Conditions: for dissociation constant, KD / Kd: Tris buffer pH 7.6, 25 °C, two trials, average ± standard deviation; for n (sugar-to-protein binding ratio) / ΔG / ΔH / –TΔS: 25 °C, Tris buffer pH 7.6; for Kd: read-out: dissociation constant, KD

HBHA110–199, sequence (P9WIP9 110-199): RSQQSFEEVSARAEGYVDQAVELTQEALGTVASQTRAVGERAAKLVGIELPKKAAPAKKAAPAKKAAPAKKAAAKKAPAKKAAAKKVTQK

| Structure (SMILES) | dissociation constant, KD | n (sugar-to-protein binding ratio) | ΔG | ΔH | –TΔS | Kd |
| --- | --- | --- | --- | --- | --- | --- |
| CC(=O)N[C@H]1[C@@H](O[C@H]2[C@H](O)[C@@H](O)[C@H]3OC[C@@H]2O3)O[C@H](COS(=O)(=O)O)[C@@H](O[C@@H]2O[C@@H](C(=O)O)[C@@H](O[C@H]3O[C@H](COS(=O)(=O)O)[C@@H](O[C@@H]4O[C@@H](C(=O)O)[C@@H](O[C@H]5O[C@H](COS(=O)(=O)O)[C@@H](O[C@@H]6O[C@@H](C(=O)O)[C@@H](O[C@H]7O[C@H](COS(=O)(=O)O)[C@@H](O[C@@H]8O[C@@H](C(=O)O)[C@@H](O[C@H]9O[C@H](COS(=O)(=O)O)[C@@H](O[C@@H]%10O[C@@H](C(=O)O)[C@@H](O[C@H]%11O[C@H](COS(=O)(=O)O)[C@@H](O[C@@H]%12O[C@@H](C(=O)O)[C@@H](O[C@H]%13O[C@H](COS(=O)(=O)O)[C@@H](O[C@@H]%14O[C@@H](C(=O)O)[C@@H](O[C@H]%15O[C@H](COS(=O)(=O)O)[C@@H](O)[C@H](O)[C@H]%15NC(C)=O)[C@H](O)[C@H]%14O)[C@H](O)[C@H]%13NC(C)=O)[C@H](O)[C@H]%12O)[C@H](O)[C@H]%11NC(C)=O)[C@H](O)[C@H]%10O)[C@H](O)[C@H]9NC(C)=O)[C@H](O)[C@H]8O)[C@H](O)[C@H]7NC(C)=O)[C@H](O)[C@H]6O)[C@H](O)[C@H]5NC(C)=O)[C@H](O)[C@H]4O)[C@H](O)[C@H]3NC(C)=O)[C@H](O)[C@H]2O)[C@@H]1O [compound 31] | no detectable binding; also recorded: no binding detected | – | – | – | – | – |
| O=C(O)[C@@H]1O[C@@H](O[C@H]2[C@H](O)[C@@H](NS(=O)(=O)O)[C@@H](O[C@H]3[C@H](O)[C@@H](O)[C@H]4OC[C@@H]3O4)O[C@@H]2CO)[C@H](O)[C@@H](O)[C@@H]1O[C@H]1O[C@H](CO)[C@@H](O[C@@H]2O[C@@H](C(=O)O)[C@@H](O[C@H]3O[C@H](CO)[C@@H](O[C@@H]4O[C@@H](C(=O)O)[C@@H](O[C@H]5O[C@H](CO)[C@@H](O[C@@H]6O[C@@H](C(=O)O)[C@@H](O[C@H]7O[C@H](CO)[C@@H](O[C@@H]8O[C@@H](C(=O)O)[C@@H](O[C@H]9O[C@H](CO)[C@@H](O[C@@H]%10O[C@@H](C(=O)O)[C@@H](O[C@H]%11O[C@H](CO)[C@@H](O[C@@H]%12O[C@@H](C(=O)O)[C@@H](O[C@H]%13O[C@H](CO)[C@@H](O)[C@H](O)[C@H]%13NS(=O)(=O)O)[C@H](O)[C@H]%12O)[C@H](O)[C@H]%11NS(=O)(=O)O)[C@H](O)[C@H]%10O)[C@H](O)[C@H]9NS(=O)(=O)O)[C@H](O)[C@H]8O)[C@H](O)[C@H]7NS(=O)(=O)O)[C@H](O)[C@H]6O)[C@H](O)[C@H]5NS(=O)(=O)O)[C@H](O)[C@H]4O)[C@H](O)[C@H]3NS(=O)(=O)O)[C@H](O)[C@H]2O)[C@H](O)[C@H]1NS(=O)(=O)O [compound 21] | – | 0.23 ± 0.10 | –6.55 ± 0.06 kcal/mol | 7.76 ± 4.02 kcal/mol | –14.30 ± 3.96 kcal/mol | 16000 ± 1500 nM |
| CC(=O)N[C@H]1[C@@H](O[C@H]2[C@H](O)[C@@H](OS(=O)(=O)O)[C@H]3OC[C@@H]2O3)O[C@H](COS(=O)(=O)O)[C@@H](O[C@@H]2O[C@@H](C(=O)O)[C@@H](O[C@H]3O[C@H](COS(=O)(=O)O)[C@@H](O[C@@H]4O[C@@H](C(=O)O)[C@@H](O[C@H]5O[C@H](COS(=O)(=O)O)[C@@H](O[C@@H]6O[C@@H](C(=O)O)[C@@H](O[C@H]7O[C@H](COS(=O)(=O)O)[C@@H](O[C@@H]8O[C@@H](C(=O)O)[C@@H](O[C@H]9O[C@H](COS(=O)(=O)O)[C@@H](O[C@@H]%10O[C@@H](C(=O)O)[C@@H](O[C@H]%11O[C@H](COS(=O)(=O)O)[C@@H](O[C@@H]%12O[C@@H](C(=O)O)[C@@H](O[C@H]%13O[C@H](COS(=O)(=O)O)[C@@H](O[C@@H]%14O[C@@H](C(=O)O)[C@@H](O[C@H]%15O[C@H](COS(=O)(=O)O)[C@@H](O)[C@H](O)[C@H]%15NC(C)=O)[C@H](O)[C@H]%14OS(=O)(=O)O)[C@H](O)[C@H]%13NC(C)=O)[C@H](O)[C@H]%12OS(=O)(=O)O)[C@H](O)[C@H]%11NC(C)=O)[C@H](O)[C@H]%10OS(=O)(=O)O)[C@H](O)[C@H]9NC(C)=O)[C@H](O)[C@H]8OS(=O)(=O)O)[C@H](O)[C@H]7NC(C)=O)[C@H](O)[C@H]6OS(=O)(=O)O)[C@H](O)[C@H]5NC(C)=O)[C@H](O)[C@H]4OS(=O)(=O)O)[C@H](O)[C@H]3NC(C)=O)[C@H](O)[C@H]2OS(=O)(=O)O)[C@@H]1O [compound 23] | – | 0.27 ± 0.01 | –7.62 ± 0.02 kcal/mol | 15.00 ± 0.00 kcal/mol | –22.60 ± 0.00 kcal/mol | 2630 ± 110 nM |
| O=C(O)[C@@H]1O[C@@H](O[C@H]2[C@H](O)[C@@H](NS(=O)(=O)O)[C@@H](O[C@H]3[C@H](O)[C@@H](O)[C@H]4OC[C@@H]3O4)O[C@@H]2COS(=O)(=O)O)[C@H](O)[C@@H](O)[C@@H]1O[C@H]1O[C@H](COS(=O)(=O)O)[C@@H](O[C@@H]2O[C@@H](C(=O)O)[C@@H](O[C@H]3O[C@H](COS(=O)(=O)O)[C@@H](O[C@@H]4O[C@@H](C(=O)O)[C@@H](O[C@H]5O[C@H](COS(=O)(=O)O)[C@@H](O[C@@H]6O[C@@H](C(=O)O)[C@@H](O[C@H]7O[C@H](COS(=O)(=O)O)[C@@H](O[C@@H]8O[C@@H](C(=O)O)[C@@H](O[C@H]9O[C@H](COS(=O)(=O)O)[C@@H](O[C@@H]%10O[C@@H](C(=O)O)[C@@H](O[C@H]%11O[C@H](COS(=O)(=O)O)[C@@H](O[C@@H]%12O[C@@H](C(=O)O)[C@@H](O[C@H]%13O[C@H](COS(=O)(=O)O)[C@@H](O)[C@H](O)[C@H]%13NS(=O)(=O)O)[C@H](O)[C@H]%12O)[C@H](O)[C@H]%11NS(=O)(=O)O)[C@H](O)[C@H]%10O)[C@H](O)[C@H]9NS(=O)(=O)O)[C@H](O)[C@H]8O)[C@H](O)[C@H]7NS(=O)(=O)O)[C@H](O)[C@H]6O)[C@H](O)[C@H]5NS(=O)(=O)O)[C@H](O)[C@H]4O)[C@H](O)[C@H]3NS(=O)(=O)O)[C@H](O)[C@H]2O)[C@H](O)[C@H]1NS(=O)(=O)O [compound 32] | – | 0.30 ± 0.01 | –7.69 ± 0.08 kcal/mol | 11.50 ± 0.28 kcal/mol | –19.15 ± 0.21 kcal/mol | 2360 ± 300 nM |
| CC(=O)N[C@H]1[C@@H](O[C@H]2[C@H](O)[C@@H](OS(=O)(=O)O)[C@H]3OC[C@@H]2O3)O[C@H](CO)[C@@H](O[C@@H]2O[C@@H](C(=O)O)[C@@H](O[C@H]3O[C@H](CO)[C@@H](O[C@@H]4O[C@@H](C(=O)O)[C@@H](O[C@H]5O[C@H](CO)[C@@H](O[C@@H]6O[C@@H](C(=O)O)[C@@H](O[C@H]7O[C@H](CO)[C@@H](O[C@@H]8O[C@@H](C(=O)O)[C@@H](O[C@H]9O[C@H](CO)[C@@H](O[C@@H]%10O[C@@H](C(=O)O)[C@@H](O[C@H]%11O[C@H](CO)[C@@H](O[C@@H]%12O[C@@H](C(=O)O)[C@@H](O[C@H]%13O[C@H](CO)[C@@H](O[C@@H]%14O[C@@H](C(=O)O)[C@@H](O[C@H]%15O[C@H](CO)[C@@H](O)[C@H](O)[C@H]%15NC(C)=O)[C@H](O)[C@H]%14OS(=O)(=O)O)[C@H](O)[C@H]%13NC(C)=O)[C@H](O)[C@H]%12OS(=O)(=O)O)[C@H](O)[C@H]%11NC(C)=O)[C@H](O)[C@H]%10OS(=O)(=O)O)[C@H](O)[C@H]9NC(C)=O)[C@H](O)[C@H]8OS(=O)(=O)O)[C@H](O)[C@H]7NC(C)=O)[C@H](O)[C@H]6OS(=O)(=O)O)[C@H](O)[C@H]5NC(C)=O)[C@H](O)[C@H]4OS(=O)(=O)O)[C@H](O)[C@H]3NC(C)=O)[C@H](O)[C@H]2OS(=O)(=O)O)[C@@H]1O [compound 26] | no detectable binding; also recorded: no binding detected | – | – | – | – | – |
